Source: patent publication US9622469B2, “Crosslink breakers for preservation of biological substances” (priority 2013, dated 2017)
Marks after values point to notes of the source that are not given here.

How the values were obtained:
[1] = Cleavage of PPD (3) to benzoic acid by NHC precursors, Method B (MeCN co-solvent); assay type: biochemical
Experimental: (§1) Dicarbonyl cleavage reactions were performed using either the method described in Vasan et al., An agent cleaving glucose-derived protein crosslinks in vitro and in vivo, Nature (1996) Vol. 382, pp. 275-278 (Method A) or a modified method with MeCN as a co-solvent (Method B).
(§2) 60 mM solution of dicarbonyl substrate (45 μmol) in MeCN (0.75 ml) was added to 20 mM solution of NHC (15 μmol) in 0.15 M pH 7.4 sodium phosphate buffer (0.75 ml) and kept stirred at 37° C. At stated times, 75 μl aliquots were taken, diluted with 50% MeCN/H2O (425 μl) and analyzed by LCMS with 2,4-dihydroxyquinoline (248 μM) as an internal standard. The cleavage products were quantified by peak integration against the calibration curves.
Thus, our first goal in these studies was to assess the ability of various NHC precursors to induce the degradation of the dicarbonyl model substrate (PPD, 3). To this end, we screened the thiazolium (4-6), benzothiazolium (7), triazolium (8,9) and imidazolium (10) halide substructures shown in Table 1.

[2] = Cleavage of PPD by NHC precursors, Method A (alcoholic co-solvent); assay type: biochemical; settings: co-solvent MeOH
Experimental: as §1
PPD (21 μl, 156 μmol) was added to a murky solution of NHC (2 or 4, 71 μmol) in 50% MeOH/0.5 M pH 7.4 sodium phosphate buffer (3.5 ml/3.5 ml; final conc. 10 mM NHC, 22 mM PPD) and kept stirred at 37° C. Approximately 0.5 ml aliquots were taken at stated times and analyzed by HPLC. Experiments using EtOH or iPrOH as a co-solvent were done in the same manner. Concentrations of benzoic acid and benzoate esters were determined by peak integration against the calibration curves.
Having learned that ALT-711 performed best among NHCs evaluated for PPD cleavage, we sought to test its substrate scope versus its N-benzyl counterpart (4). We therefore measured product distribution and yield while varying the co-solvent used to solubilize dicarbonyl substrates. As summarized in Table 2, we first investigated the performance of alcoholic co-solvents in PPD cleavage reactions. […] Despite this, however, the product distributions differed substantially: ALT-711 (2) predominantly afforded benzoic acid (PhCO2H:PhCO2Me=3.2:1, Entry 2), whereas 4 mostly gave rise to methyl benzoate (PhCO2H:PhCO2Me=1:2.2, Entry 4). Further replacement of the co-solvent with EtOH and i-PrOH in 4-catalyzed reactions led to a decrease in the proportion of ester production, still without altering overall yield (Entries 5 and 6).

[3] = NHC-mediated cleavage of bis-alkyl diketone 14, Method B; assay type: biochemical; settings: LCMS, with respect to dicarbonyl
Experimental: as §2
(§3) Our efforts to investigate the scope of thiazolium salt-mediated reactions with dicarbonyls began with bis-alkyl diketone 14 (Table 3, Entry 1). This substrate is cleaved cleanly by 2, and affords acid 18 in 82% yield. NHC precursor 4, on the other hand, provides 18 in only 14% yield (Entry 2). The efficiency of dicarbonyl cleavage reactions decreases substantially in the case of benzil (15, Entry 3), which affords benzoic acid in 14% and 1% yield following exposure to 2 and 4, respectively.

[4] = NHC-mediated cleavage of benzil (15), Method B; assay type: biochemical; settings: LCMS, with respect to dicarbonyl
Experimental: as §2, §3

[5] = NHC-mediated reaction with α-keto aldehyde phenylglyoxal (16), Method B; assay type: biochemical; settings: isolated yield with respect to 2
Experimental: as §2
Phenylglyoxal hydrate (16; 114 mg, 0.75 mmol, 2 eq) was added to a solution of ALT-711 (2; 100 mg, 0.37 mmol) in 50% MeCN/0.15 M pH 7.4 phosphate buffer (total vol. 37 ml) and kept stirred at room temperature for 15 mins. The reaction mixture was cooled to −20° C. to precipitate out sodium phosphate as white crystals. The supernatant was transferred, and the residue was washed with MeCN and combined with the supernatant. This yellow clear solution was concentrated at room temperature to remove MeCN and purified by HPLC (16-27MeCN over 31 min). […]
Reactions involving α-keto aldehyde derivatives 16 and 17 followed an unexpected course. Treatment of these substrates with 2 led to instantaneous, high-yield production of a diastercomeric mixture of cycloadducts (19 and 20) that decompose to complex mixtures under the reaction conditions with half-lives of approximately 3 h Structures were determined based on in-depth NMR analysis (see Supplementary Material).

[6] = Trapping of methylglyoxal under physiological conditions (PBS); assay type: biochemical; settings: 37° C., 24 hours, MGO at pathologically relevant concentration (4-6 μM)
Experimental: For trapping under physiological conditions (FIG. 5), 12.5 μl of 2 (40 mM stock) and 7.7 μl of MGO (6.5 mM stock) were added to PBS (4.98 ml) and kept stirred at 37° C. At stated times, 445 μl of the reaction mixture was taken, quenched with 1 M HCl (5 μl) and analyzed by LCMS after adding 50 μl of 3 mM 4-methoxybenzhydrol as an internal standard. Yield of ALT-MGO (20) was determined by peak integration (m/z=304) against a calibration curve.
Recognizing the reaction conditions employed above were non-physiological, we wanted to test if ALT-711 could efficiently trap methylglyoxal (MGO, 17) at a pathologically relevant concentration (4-6 μM). We obtained ALT-MOO adduct (20) in PBS with a 53% yield at 24 hours (FIG. 5B). […] The trapping of MGO by ALT-711 may be the mechanism for the observed effects.

[7] = Stability studies of NHC precursors under the PPD cleavage reaction conditions; assay type: physicochemical; settings: exposure to PPD, Method B conditions
Text: Instead, 7 gave rise predominantly to an oxalamide derivative, which is believed to form via dimerization and oxidation of intermediate carbenes. […] Stability studies afforded additional insights.
In cleavage of PPD with ALT-711 (2), we detected several decomposition products of the catalyst that appear to be adducts between 2 and an acetyl group, the remainder of PPD following the release of benzoic acid. One adduct that has been isolated and characterized explains why the concentration of ALT-711 diminishes after cleaving PPD while the benzyl counterpart (4) behaves as a stable catalyst. Instead of liberating acetaldehyde and re-entering the catalytic cycle, oxidation of alcohol 13 to the corresponding methyl ketone followed by an aldol condensation with the phenyl ketone gives rise to a thiazolopyridinium derivative (see Supplementary Material for details).

[8] = various animal studies and clinical trials; cited from earlier work
[9] = rats; cited from earlier work

Cc1sc[n+](CC(=O)c2ccccc2)c1C.[Cl-] [Compound 2]
Benzoic acid formation from 3 (in words) ([1]; Method B screen of NHC precursors): highest overall yield
Combined % Yield (PhCO2H) ([1]; co-solvent MeCN, Method B, LCMS, with respect to dicarbonyl): 61%
Combined % Yield (PhCO2H, PhCO2Me) [2]: 54%
% Yield of acid 18 from substrate 14 [3]: 82%
% Yield of PhCO2H from substrate 15 (benzil) [4]: 14%
% Yield of cycloadduct 19 from substrate 16 [5]: 55^b %
Yield of ALT-MGO adduct (20) [6]: 53%
Stability of NHC precursor under the reaction conditions [7]: disappear from solution
Toxicity to animals and humans [8]: non-toxic
MGO levels and MGO-induced glucose intolerance [9]: lowered MOO levels and attenuated MOO-induced glucose intolerance
